Data from PMC6930524, “A Prospective Repurposing of Dantrolene as a Multitarget Agent for Alzheimer’s Disease” (Molecules, 2019).

Molecular target: T1, carnitine/acylcarnitine carrier (CAC) in intact rat liver mitochondria (Rattus norvegicus, UniProt P97521)
T1 construct: The measurement of CAC activity in isolated entire mitochondria has been performed as previously described; from tissue; host or cells: rat liver mitochondria (intact organelles)
T1 sequence (P97521 1-301): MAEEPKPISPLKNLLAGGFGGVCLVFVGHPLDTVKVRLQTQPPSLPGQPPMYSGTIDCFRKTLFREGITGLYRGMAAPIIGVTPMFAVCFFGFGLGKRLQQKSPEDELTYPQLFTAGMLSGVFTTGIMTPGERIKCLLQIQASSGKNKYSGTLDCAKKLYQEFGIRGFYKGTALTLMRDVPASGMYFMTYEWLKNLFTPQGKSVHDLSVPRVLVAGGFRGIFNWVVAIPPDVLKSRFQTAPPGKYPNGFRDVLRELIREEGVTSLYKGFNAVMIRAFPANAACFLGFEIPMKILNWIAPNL
Assay: [3H]-carnitine uptake (CAC transport) in intact mitochondria
Format: biochemical
Details: 50 μM, after 120 min, 0.05 mM [3H]-carnitine
Protocol: The purification of crude rat mitochondria and the measurement of CAC transport activity are described in Materials and Methods. The uptake of carnitine was started by adding 0.05 mM [^3H]-carnitine in the presence or absence of 50 μM DAN (dissolved in 1:1 DMSO/H2O). The transport activity was inhibited at various times by adding cold 1 mM N-ethylmaleimide (NEM) in a buffer containing 150 mM sucrose, 50 mM TRIS-HCl, 50 mM KCl. […] Addition of DAN to intact mitochondria induced an increase of transport function up to 41% after 120 min.
In order to isolate crude mitochondria from rat liver, a standard protocol was performed, involving cell destruction by mechanical stress, isolation by differential centrifugation in order to eliminate various subcellular contaminations, and purification by centrifugation on colloidal silica Percoll 30% gradient. The average purity of the mitochondrial preparation was monitored by measuring the specific activity of alkaline phosphatase (EC 3.1.3.1). The specific activity of alkaline phosphatase, in the mitochondria preparations was measured at 37 °C as substrate consumed per min per mg protein [55]. […] The purified mitochondria (5 mg/100 μL) were incubated for 2 h with 20 mM carnitine, washed three times with a buffer containing 150 mM sucrose, 50 mM TRIS-HCl, 50 mM KCl, and the transport activity was measured. […]

Structure (SMILES): O=C1CN(/N=C/c2ccc(-c3ccc([N+](=O)[O-])cc3)o2)C(O)=N1 [Dantrolene]
- increase of CAC transport function in intact mitochondria: 41%
